Columns and labels:
Format in all cases: in vivo
[1] = system: Dutch Belted rabbit corneas; assay: Safety of glyceraldehyde in rabbits, slit lamp examination scores (Example 1); details: 500 IU hyaluronidase day 1, 3% glyceraldehyde 20 μL intrastromal day 8, then 1 drop three times a day, 50 days, control BSS
Text: In this Example, the safety of treating Dutch Belted rabbit corneas with glyceraldehyde following administration of the corneal softening enzyme hyaluronidase was investigated. This study involved the use of five (5) pigmented Dutch Belted rabbits, two (2) in the control group and three (3) in the glyceraldehyde treated group.
All rabbits received a thorough slit lamp examination on the first day of the study to establish the baseline using the following technique. A Nikon FS-2 Slit Lamp was used for the examinations of the test animals. For each animal examined, the eyes were dilated by instilling one drop of 1.0% tropicamide (Bausch and Lomb, Tampa, Fla.) and 2.5% phenylephrine (Bausch and Lomb, Tampa, Fla.). The animal was then positioned in front of a slit lamp. The corneas of each animal were examined for edema and the surface area involved with edema was estimated. The anterior chambers of the animals were closely examined for chamber depth, aqueous cell and flare, and fibrin. The iris of each animal was examined for atrophy, symmetry, or synechiae. The lens was examined and cellular debris, capsule, or lens protein abnormalities were noted if present. The vitreous humor of each animal were then examined for the presence of cells or other abnormnalities. […]

[2] = system: Dutch Belted rabbit corneas; assay: Histopathologic examination of harvested corneas (Example 1); details: rabbits; eyes harvested Study Day 58
Procedure: The animals were sacrificed and their eyes were harvested on Study Day 58. The animals in the study were euthanised using an intravenous injection of pentobarbital (2 mg/kg). The eyes of the animals were enucleated immediately after sacrifice using Castro-Viejo scissors. The corneas of the eyes were then removed and placed on the end of a glass tube and cut in half. These samples were then snap frozen in liquid nitrogen. […] The corneas were then sectioned, stained with hematoxylin/eosin and the slides were sent to a Board-certified Veterinary Pathologist for interpretation.

[3] = system: Dutch Belted rabbit eyes; assay: Slit lamp biomicroscopy including Rose Bengal staining (Example 2)
Procedure: This example further examines the safety of glyceraldehyde treatment in an animal model. The experiment described in Example 2 involved the study of six (6) pigmented Dutch Belted rabbits, two (2) in the control group and four (4) in glyceraldehyde treated experimental group. On Study Day 1, all rabbits received a thorough ophthalmic examination including slit lamp biomicroscopy and indirect ophthalmoscopy.
The slit lamp biomicroscopy was performed substantially as described in Example 1. However, Rose Bengal stain was used here applied using Rose Bengal Ophthalmic Strips (Barnes-Hind, Inc., Sunnyvale, Calif.). This procedure involved a sterile strip wetted in 0.9% sodium chloride applied to the […] and sciera of an examined rabbit. The rabbit was allowed to blink applying the stain and then the treated eye was examined. Slit lamp biomicroscopy including Rose Bengal staining was performed on Study Days 1 (baseline), 8, 9, 11, 15, 34, 45, and 63. The animals were scored and the results recorded using the criteria described in Example 1.
Following baseline examinations, the rabbits were anesthetized and received a corneal intrastromal injection of 500 IU of hyaluronidase in OD (right eye) only using the method described in Example 1.
The administration of the test agents in the form of topical eyedrops began on Study Day 8. The control animals were administered a Balanced Saline Solution (BSS) (IOLAB Corporation, Claremont, Calif.) four times a day in each eye. The experimental animals received a 3% glyceraldehyde solution. The glyceraldehyde solution was prepared under sterile conditions at Advanced Corneal Systems (Irvine, Calif.) by dissolving 18 grams of glyceraldehyde in 600 mL of 0.9% sodium chloride USP, sterile filtering, and aliquotting the 3% glyceraldehyde (w/v) solution into 10 ml droppers. The experimental rabbits received one drop of glyceraldehyde solution four times a day using the technique described in Example 1. The rabbits received topical drops for a total of 63 days.

[4] = system: Dutch Belted rabbit eyes; assay: GLP safety study, histopathology (Example 3); details: rarely noted in both glyceraldehyde and saline treated groups; Study Day 40
Text: On Study Day 40, after 32 days of drops, the animals were sacrificed and the eyes were harvested according to the methods described in Experiment 2. The eyes were fixed in half-strength Karnovsky's fixative as described in Experiment 2 and sent to a Board Certified Veterinary Pathologist for interpretation.

[5] = system: eyes of non-sighted human patients; assay: Safety of non-enzymatic corneaplasty and topical 3% glyceraldehyde in five non-sighted human patients (Example 5); details: lenses 7 days, then 3% glyceraldehyde plus lenses 28 days, only minor incidents of SPK
Procedure: In this study five non-sighted patients with good corneas were treated with contact lenses and a 3% glyceraldehyde solution to determine the safety of this procedure. Here, the patients were fitted with and wore contact lenses for seven (7) days. Following this period a 3% glyceraldehyde solution (described above) was applied to the eyes and the contact lens wear continued for twenty-eight (28) days. After this period both the contact lens wear and the glyceraldehyde treatment ceased.
The patients were individually examined for the effects of the treatments following removal of the lenses and cessation of the glyceraldehyde treatment. The first examination was on the last day of treatment, and five (5) subsequent examinations were administered over a one month period.

## O=CC(O)CO (stereo not shown) [glyceraldehyde]
[1]
  clinical observations (slit lamp scores), statistical analysis vs control group: no differences between the groups
[2]
  histopathologic differences between corneas of control and treated groups: no appreciable differences
[3]; glyceraldehyde treated cohort had cell and flare at baseline
  day by which aqueous cell/flare was absent: ≤ 14 days
[3]; rabbits, 3% glyceraldehyde 1 drop four times a day, 63 days, 500 IU hyaluronidase in right eye only
  changes to the structure of the eyes as compared to controls: no significant changes
[3]; rabbits, 3% glyceraldehyde drops four times a day
  effect on resolution of baseline aqueous cell and flare: did not appear to impair the resolution of the cell and flare
[4]
  histopathology: focal increase in cellularity of corneal stroma, reduplication of Descemet's membrane, relation to treatment: not associated with treatment with the drops
[5]
  corneal findings in all patients: Normal corneas

From patent US6537545B1, “Use of corneal hardening agents in enzymeorthokeratology” (ISTA Pharmaceuticals, Inc., priority 1998, dated 2003)
